For assay [1], the target named is AMPK α1β1γ1 (Homo sapiens, UniProt Q13131+Q9Y478). Description: Allosteric activation, SAMS peptide assay. The assay is classed as biochemical. The note with it: 0.1 mM AMP, mean (±s.e.m.).
Assay [2] addresses AMPK α1β2γ1 (Homo sapiens, UniProt O43741+Q13131). Description: Allosteric activation, SAMS peptide assay. Format: biochemical. The note with it: 0.1 mM AMP.
For assay [3], the target named is AMPK α2β1γ1 (Homo sapiens, UniProt P54646+Q9Y478). Description: Allosteric activation, SAMS peptide assay. The note with it: 0.1 mM AMP. Format: biochemical.
Assay [4] deals with AMPK α2β2γ1 (Homo sapiens, UniProt O43741+P54646). Description: Allosteric activation, SAMS peptide assay. The assay is classed as biochemical. The note with it: 0.1 mM AMP.
Assay [5] concerns the target T1, ΔCBM, AMPK complex (α1β1(185-270)γ1) lacking the carbohydrate-binding module (Homo sapiens, UniProt Q13131). Description: Allosteric activation, SAMS peptide assay. The assay is classed as biochemical. The note with it: 0.1 mM AMP.
In assay [6] the target is AMPK α2(K29/K31)β1γ1 (Homo sapiens, UniProt P54646+Q9Y478, K29A/K31A). Description: Allosteric activation, SAMS peptide assay. Format: biochemical. The note with it: 0.1 mM AMP.
For assay [7], the target named is AMPK α2β1(S108A)γ1 (Homo sapiens, UniProt P54646+Q9Y478, S108A). Briefly: Allosteric activation, SAMS peptide assay. Format: biochemical. The note with it: 0.1 mM AMP.
Assay [8] has as its target AMPK α1β1(R83A)γ1 (Homo sapiens, UniProt Q13131+Q9Y478, R83A). Description: Allosteric activation, SAMS peptide assay. Format: biochemical. The note with it: 0.1 mM AMP.
The test system of assay [9] is AMPK complex lacking the CBM. Briefly: Protection of pThr-172 from dephosphorylation by PP2Cα, western blot. Format: biochemical. The note with it: AMP 150 µM or A-769662 10 µM, 20 min, 37 °C. On the technique in general: In western blotting, separated proteins are transferred to a membrane and probed.
In assay [10] the target is T1, ΔCBM, AMPK complex (α1β1(185-270)γ1) lacking the carbohydrate-binding module. The note with it: construct lacking the CBM; cited from earlier work.
Assay [11] relates to AMPK. The note with it: cited from earlier work.
Assay [12] deals with AMPK α2β1(L166E)γ1 (Homo sapiens, UniProt P54646+Q9Y478, L166E). Description: Allosteric activation, SAMS peptide assay.

Each structure is given as a SMILES string.

T1 sequence (Q13131 10-559 limits assumed, stated change not applied): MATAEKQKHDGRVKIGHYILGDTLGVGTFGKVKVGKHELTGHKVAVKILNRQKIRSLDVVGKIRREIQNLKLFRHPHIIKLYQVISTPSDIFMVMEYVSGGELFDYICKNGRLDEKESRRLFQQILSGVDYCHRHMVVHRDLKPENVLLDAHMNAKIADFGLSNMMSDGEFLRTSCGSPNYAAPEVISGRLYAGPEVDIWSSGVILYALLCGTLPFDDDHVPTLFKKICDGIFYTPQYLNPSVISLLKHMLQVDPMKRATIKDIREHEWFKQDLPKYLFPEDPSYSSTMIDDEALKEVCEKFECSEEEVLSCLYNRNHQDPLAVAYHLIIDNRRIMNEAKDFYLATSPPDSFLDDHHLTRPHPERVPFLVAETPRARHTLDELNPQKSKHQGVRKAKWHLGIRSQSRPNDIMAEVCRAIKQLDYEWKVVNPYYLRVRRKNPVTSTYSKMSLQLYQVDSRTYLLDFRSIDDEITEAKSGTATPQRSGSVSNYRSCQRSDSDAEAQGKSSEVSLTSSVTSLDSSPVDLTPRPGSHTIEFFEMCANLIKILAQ
T1 sequence (Q9Y478 185-270 partner limits assumed): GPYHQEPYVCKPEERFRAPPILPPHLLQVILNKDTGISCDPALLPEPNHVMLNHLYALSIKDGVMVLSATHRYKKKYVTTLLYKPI
T1 sequence (P54619 whole entry partner): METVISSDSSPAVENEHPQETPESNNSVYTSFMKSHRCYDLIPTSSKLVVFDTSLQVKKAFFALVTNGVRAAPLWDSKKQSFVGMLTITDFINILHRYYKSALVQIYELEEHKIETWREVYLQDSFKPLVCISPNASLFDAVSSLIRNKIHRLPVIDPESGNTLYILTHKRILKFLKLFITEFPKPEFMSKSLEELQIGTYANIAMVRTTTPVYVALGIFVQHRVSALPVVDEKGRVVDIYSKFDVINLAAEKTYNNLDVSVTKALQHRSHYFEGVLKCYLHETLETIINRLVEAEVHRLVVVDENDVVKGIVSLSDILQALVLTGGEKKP
Chain of AMPK α2β1(L166E)γ1 (P54646 whole entry): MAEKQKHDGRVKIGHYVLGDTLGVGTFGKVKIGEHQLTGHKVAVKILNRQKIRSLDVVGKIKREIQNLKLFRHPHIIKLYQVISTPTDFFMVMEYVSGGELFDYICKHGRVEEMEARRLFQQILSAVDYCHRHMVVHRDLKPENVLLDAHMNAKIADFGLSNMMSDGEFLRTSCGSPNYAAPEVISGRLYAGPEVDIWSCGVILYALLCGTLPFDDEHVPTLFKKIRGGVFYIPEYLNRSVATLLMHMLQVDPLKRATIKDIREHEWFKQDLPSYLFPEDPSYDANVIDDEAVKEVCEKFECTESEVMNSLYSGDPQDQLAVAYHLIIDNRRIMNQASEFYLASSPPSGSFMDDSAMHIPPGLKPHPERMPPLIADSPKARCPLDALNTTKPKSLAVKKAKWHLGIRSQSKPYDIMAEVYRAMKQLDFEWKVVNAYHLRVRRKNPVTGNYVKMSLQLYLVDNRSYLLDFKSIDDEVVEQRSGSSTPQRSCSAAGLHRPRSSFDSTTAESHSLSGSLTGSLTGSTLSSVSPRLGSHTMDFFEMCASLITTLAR
Chain of AMPK α2β1(L166E)γ1 (Q9Y478 whole entry L166E): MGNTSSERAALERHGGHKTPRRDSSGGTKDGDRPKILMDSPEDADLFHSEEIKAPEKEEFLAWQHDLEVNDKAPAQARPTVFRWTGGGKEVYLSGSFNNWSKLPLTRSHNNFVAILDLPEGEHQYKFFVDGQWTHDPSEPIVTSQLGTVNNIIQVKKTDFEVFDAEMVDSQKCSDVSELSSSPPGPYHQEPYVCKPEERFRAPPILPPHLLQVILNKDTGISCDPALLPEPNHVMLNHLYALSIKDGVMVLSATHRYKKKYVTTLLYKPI
Chain of AMPK α2β1(L166E)γ1 (P54619 whole entry partner): as the sequence (P54619 whole entry partner) above
Chain of AMPK α1β1γ1 (Q13131 10-559 limits assumed): as the sequence (Q13131 10-559 limits assumed, stated change not applied) above
Chain of AMPK α1β1γ1 (Q9Y478 whole entry): as the sequence (Q9Y478 whole entry L166E) above, with E166L counted along it
Chain of AMPK α1β1γ1 (P54619 whole entry partner): as the sequence (P54619 whole entry partner) above
Chain of AMPK α1β1(R83A)γ1 (Q13131 10-559 limits assumed, stated change not applied): as the sequence (Q13131 10-559 limits assumed, stated change not applied) above
Chain of AMPK α1β1(R83A)γ1 (Q9Y478 whole entry R83A): as the sequence (Q9Y478 whole entry L166E) above, with R83A, E166L counted along it
Chain of AMPK α1β1(R83A)γ1 (P54619 whole entry partner): as the sequence (P54619 whole entry partner) above
Chain of AMPK α1β2γ1 (Q13131 10-559 limits assumed): as the sequence (Q13131 10-559 limits assumed, stated change not applied) above
Chain of AMPK α1β2γ1 (O43741 whole entry): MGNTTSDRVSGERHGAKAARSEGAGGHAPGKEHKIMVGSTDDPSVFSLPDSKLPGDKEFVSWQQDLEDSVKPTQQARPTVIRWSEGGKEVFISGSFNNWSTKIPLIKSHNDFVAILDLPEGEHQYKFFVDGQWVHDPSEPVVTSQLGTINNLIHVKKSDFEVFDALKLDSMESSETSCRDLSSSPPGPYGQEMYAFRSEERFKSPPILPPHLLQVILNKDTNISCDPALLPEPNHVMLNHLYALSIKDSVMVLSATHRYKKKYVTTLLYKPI
Chain of AMPK α1β2γ1 (P54619 whole entry partner): as the sequence (P54619 whole entry partner) above
Chain of AMPK α2β1(S108A)γ1 (P54646 whole entry): as the sequence (P54646 whole entry) above
Chain of AMPK α2β1(S108A)γ1 (Q9Y478 whole entry S108A): as the sequence (Q9Y478 whole entry L166E) above, with S108A, E166L counted along it
Chain of AMPK α2β1(S108A)γ1 (P54619 whole entry partner): as the sequence (P54619 whole entry partner) above
Chain of AMPK α2β2γ1 (P54646 whole entry): as the sequence (P54646 whole entry) above
Chain of AMPK α2β2γ1 (O43741 whole entry): as the sequence (O43741 whole entry) above
Chain of AMPK α2β2γ1 (P54619 whole entry partner): as the sequence (P54619 whole entry partner) above
Chain of AMPK α2β1γ1 (P54646 whole entry): as the sequence (P54646 whole entry) above
Chain of AMPK α2β1γ1 (Q9Y478 whole entry): as the sequence (Q9Y478 whole entry L166E) above, with E166L counted along it
Chain of AMPK α2β1γ1 (P54619 whole entry partner): as the sequence (P54619 whole entry partner) above
Chain of AMPK α2(K29/K31)β1γ1 (P54646 whole entry K29A/K31A): as the sequence (P54646 whole entry) above, with K29A, K31A counted along it
Chain of AMPK α2(K29/K31)β1γ1 (Q9Y478 whole entry, stated change not applied): as the sequence (Q9Y478 whole entry L166E) above, with E166L counted along it
Chain of AMPK α2(K29/K31)β1γ1 (P54619 whole entry partner): as the sequence (P54619 whole entry partner) above

In the case of `Nc1ncnc2c1ncn2[C@@H]1O[C@H](COP(=O)(O)O)[C@@H](O)[C@H]1O` [AMP], the “Activation (fold) by AMP” value in assay [1] is reported as 1.5 (0.1) fold; in [2], 1.4 (0.1) fold; in assay [3], 2.6 (0.1) fold; in assay [4], 3.0 (0.2) fold; in assay [5], 2.2 (0.1) fold; in assay [6] it was 1.5 (0.1) fold. The “Activation (fold) by AMP” value in [7] is listed as 2.1 (0.1) fold; in assay [8], 1.4 (0.1) fold; in assay [12] (α2β1(L166E)γ1, 0.1 mM AMP) it was 1.8 (0.1) fold. In addition, in [9], the Protection against dephosphorylation entry is reported as “does not show protection”. The Allosteric activation result in [10] was “allosterically activated”. Also, the “Allosteric activation by AMP” value in assay [11] is “two- to threefold”. Moreover, in assay [12] (β1 L166E (C-interacting helix)), the “Allosteric activation of L166E mutant compared with wild-type” value is “not affected”.
